Converted amounts (≈) assume the structure as drawn.
Experiments:
[1] = test system: Escherichia coli (E. coli) BAS849; experiment: Antibacterial activity, microbroth dilution MIC (Table 1); type: cell-based; settings: microbroth dilution, super sensitive Gram-negative E. coli BAS849, read-out: MIC, BAS849
Procedure, shortened: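 Broth microdilution; endpoint = no macroscopic growth; value = lowest inhibiting concn, μg/mL.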

[2] = test system: Staphylococcus aureus (S. aureus) 29213; experiment: as above; type: cell-based; settings: microbroth dilution, Gram-positive S. aureus 29213, read-out: MIC, 29213
Procedure, shortened: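 Using broth microdilution, MIC endpoints (μg/mL) mark where visible growth no longer appears; the panel spans sensitive and control Gram-negative strains plus a Gram-positive strain.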

[3] = test system: E. coli 25922; experiment: as above; type: cell-based, Escherichia coli; settings: Escherichia coli; microbroth dilution; control Gram-negative E. coli 25922 strain; read-out: MIC, 25922
Procedure, shortened: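 In a microbroth dilution test, the minimum inhibitory concentration was defined as the lowest compound level preventing growth seen by eye, and was given in μg/mL.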

[4] = test system: E. coli LZ3111; experiment: Antibacterial activity, MIC, quinolone resistant strain (Table 2); type: cell-based; settings: Escherichia coli, LZ3111, read-out: MIC LZ3111
Procedure, shortened: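 Lowest concentration giving no macroscopically visible growth was taken as the MIC (μg/mL) after microbroth dilution testing.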

CCc1c(-c2ccc3c(c2)cc(CN2CCN(C(C)=O)CC2)n3C)[nH]c(=O)c(C(=O)O)c1O [Cpd 175, 6-(2-((4-acetylpiperazin-1-yl)methyl)-1-methyl-1H-indol-5-yl)-5-ethyl-4-hydroxy-2-oxo-1,2-dihydropyridine-3-carboxylic acid]
MIC [1]: < 1 µg/mL | MIC [2]: 1 to 3.5 µg/mL (≈ 2.21 to 7.73 µM) | MIC [3]: 3.5 to 12.5 µg/mL (≈ 7.73 to 27.6 µM) | MIC [4]: 12.5 to 150 µg/mL (≈ 27.6 to 331 µM)

CCc1c(-c2ccc3c(c2)cc(CN2CCC(F)(F)C2)n3C)[nH]c(=O)c(C(=O)O)c1O [Cpd 176, 6-(2-((3,3-difluoropyrrolidin-1-yl)methyl)-1-methyl-1H-indol-5-yl)-5-ethyl-4-hydroxy-2-oxo-1,2-dihydropyridine-3-carboxylic acid]
MIC [1]: < 1 µg/mL | MIC [2]: 1 to 3.5 µg/mL (≈ 2.32 to 8.11 µM) | MIC [3]: 12.5 to 150 µg/mL (≈ 29 to 348 µM) | MIC [4]: 12.5 to 150 µg/mL (≈ 29 to 348 µM)

CCc1c(-c2ccc3c(c2)cc(CN2CCC(NC(C)=O)C2)n3C)[nH]c(=O)c(C(=O)O)c1O (stereo not drawn) [Cpd 183, 6-(2-((3-acetamidopyrrolidin-1-yl)methyl)-1-methyl-1H-indol-5-yl)-5-ethyl-4-hydroxy-2-oxo-1,2-dihydropyridine-3-carboxylic acid]
MIC [1]: < 1 µg/mL | MIC [2]: 12.5 to 150 µg/mL (≈ 27.6 to 331 µM) | MIC [3]: 1 to 3.5 µg/mL (≈ 2.21 to 7.73 µM) | MIC [4]: 12.5 to 150 µg/mL (≈ 27.6 to 331 µM)

CCc1c(-c2ccc3c(c2)cc(CN2CCC[C@H]2C(=O)OC)n3C)[nH]c(=O)c(C(=O)O)c1O [Cpd 190, (S)-5-ethyl-4-hydroxy-6-(2-((2-(methoxycarbonyl)pyrrolidin-1-yl)methyl)-1-methyl-1H-indol-5-yl)-2-oxo-1,2-dihydropyridine-3-carboxylic acid]
MIC [1]: < 1 µg/mL | MIC [2]: 3.5 to 12.5 µg/mL (≈ 7.72 to 27.6 µM) | MIC [3]: 12.5 to 150 µg/mL (≈ 27.6 to 331 µM) | MIC [4]: 12.5 to 150 µg/mL (≈ 27.6 to 331 µM)

CCc1c(-c2ccc3c(c2)cc(CN2CCC(C(=O)N(C)C)C2)n3C)[nH]c(=O)c(C(=O)O)c1O (stereo not drawn) [Cpd 191, 6-(2-((3-(dimethylcarbamoyl)pyrrolidin-1-yl)methyl)-1-methyl-1H-indol-5-yl)-5-ethyl-4-hydroxy-2-oxo-1,2-dihydropyridine-3-carboxylic acid]
MIC [1]: < 1 µg/mL | MIC [2]: 3.5 to 12.5 µg/mL (≈ 7.5 to 26.8 µM) | MIC [3]: 1 to 3.5 µg/mL (≈ 2.14 to 7.5 µM) | MIC [4]: 12.5 to 150 µg/mL (≈ 26.8 to 322 µM)

CCc1c(-c2ccc3c(c2)cc(CN2CC(F)(F)C2)n3C)[nH]c(=O)c(C(=O)O)c1O [Cpd 195, 6-(2-((3,3-difluoroazetidin-1-yl)methyl)-1-methyl-1H-indol-5-yl)-5-ethyl-4-hydroxy-2-oxo-1,2-dihydropyridine-3-carboxylic acid]
MIC [1]: < 1 µg/mL | MIC [2]: 1 to 3.5 µg/mL (≈ 2.4 to 8.39 µM) | MIC [3]: 3.5 to 12.5 µg/mL (≈ 8.39 to 29.9 µM) | MIC [4]: 12.5 to 150 µg/mL (≈ 29.9 to 359 µM)

CCc1c(-c2ccc3c(c2)cc(CN2C[C@@H]4[C@H](C2)[C@H]4N(Cc2ccccc2)Cc2ccccc2)n3C)[nH]c(=O)c(C(=O)O)c1O [Cpd 196, 6-(2-(((1R,5S,6s)-6-(dibenzylamino)-3-azabicyclo[3.1.0]hexan-3-yl)methyl)-1-methyl-1H-indol-5-yl)-5-ethyl-4-hydroxy-2-oxo-1,2-dihydropyridine-3-carboxylic acid]
MIC [1]: 3.5 to 12.5 µg/mL (≈ 5.81 to 20.7 µM) | MIC [2]: 12.5 to 150 µg/mL (≈ 20.7 to 249 µM) | MIC [3]: 12.5 to 150 µg/mL (≈ 20.7 to 249 µM) | MIC [4]: 12.5 to 150 µg/mL (≈ 20.7 to 249 µM)

CCc1c(-c2ccc3c(c2)cc(CN2C[C@@H]4[C@H](C2)[C@H]4N(C)C)n3C)[nH]c(=O)c(C(=O)O)c1O [Cpd 197, 6-(2-(((1R,5S,6s)-6-(dimethylamino)-3-azabicyclo[3.1.0]hexan-3-yl)methyl)-1-methyl-1H-indol-5-yl)-5-ethyl-4-hydroxy-2-oxo-1,2-dihydropyridine-3-carboxylic acid]
MIC [1]: < 1 µg/mL | MIC [2]: 3.5 to 12.5 µg/mL (≈ 7.77 to 27.7 µM) | MIC [3]: 1 to 3.5 µg/mL (≈ 2.22 to 7.77 µM) | MIC [4]: 12.5 to 150 µg/mL (≈ 27.7 to 333 µM)

CCc1c(-c2ccc3c(c2)cc(CN[C@H]2[C@@H]4CNC[C@@H]42)n3C)[nH]c(=O)c(C(=O)O)c1O [Cpd 198, 6-(2-(((1R,5S,6s)-3-azabicyclo[3.1.0]hexan-6-ylamino)methyl)-1-methyl-1H-indol-5-yl)-5-ethyl-4-hydroxy-2-oxo-1,2-dihydropyridine-3-carboxylic acid]
MIC [1]: 1 to 3.5 µg/mL (≈ 2.37 to 8.28 µM) | MIC [2]: 12.5 to 150 µg/mL (≈ 29.6 to 355 µM) | MIC [3]: 12.5 to 150 µg/mL (≈ 29.6 to 355 µM) | MIC [4]: 12.5 to 150 µg/mL (≈ 29.6 to 355 µM)

Reference: patent US9409905B2, “Antibacterial compounds and methods for use” (PTC THERAPEUTICS, INC., priority 2011, dated 2016)
